The values below come from patent publication US4826962A, “Tetrachlororaffinose and its use in the preparation of sucralose” (Tate & Lyle Public Limited Company, priority 1985, dated 1989).

Data set [1] can be described thus: Stability of sucralose under the enzyme treatment conditions. It is filed as physicochemical. The conditions noted are these: about 55° C., pH 5.0. The method, then:
In both aqueous and organic systems, the treatment should naturally be at the optimum temperature and pH for the enzyme which, for the M. vinacea melibiase is about 55° C. and pH 4.5-5.5. In water-saturated organic solvents this refers to the pH of the aqueous buffer. At this temperature and at a pH of 5.0, we find that the sucralose produced is not degraded.

The conditions of data set [2]: cited from earlier work.
The nature of data set [3]: Solubility in solvents pre-saturated with aqueous buffer at 55° C. Type of data set: physicochemical.
The conditions of data set [4]: sweeter than sucrose; cited from earlier work.
The subject of data set [5] is α-Galactosidase in the form of pelletized cells of M. vinacea var raffinoseutilizer (ATCC 20034). The data set is described as follows: Hydrolysis of TCR to sucralose in organic media. It is filed as biochemical. The conditions noted are these: for Conversion of TCR into sucralose: 24 hours, 20 mM TCR, 55° C. The method, then:
The TCR of Example 1 (23 mg) was placed in a 5 ml screw-top vial and 2 ml of an organic solvent which had been pre-saturated with aqueous buffer (sodium acetate, 50 mM, pH 5.0) was added to give a 20 mM (1.15% w/v) solution. α-Galactosidase in the form of pelletized cells of M. vinacea var raffinoseutilizer (ATCC 20034) was added (100 mg) to each vial and the reactions were initiated by adding 1% v/v aqueous buffer, vortexing for 30 seconds, and placing the vial in a water-bath shaker at 55° C. and 100 rpm. Periodically, aliquots were removed and 25 μl were injected into an Hplc system fitted with a reverse phase (Waters Dextropak C18) column, using 20% aqueous acetonitrile as eluant, to measure the sucralose produced and the residual TCR. In the figure the progress of the hydrolysis of TCR into sucralose with time is plotted for aqueous buffer (curve 1) and for three solvents, methyl isobutyl ketone (2), ethyl acetate (3) and n-butanol (4). The hydrolysis reaction in methyl isobutyl ketone and in aqueous buffer were similar. Lower rates and conversions were obtained in ethyl acetate and n-butanol, respectively. In all cases, greater than 50% conversion in 24 hours was observed, with 70% conversions in aqueous buffer and methyl isobutyl ketone.
The reason that the time-course for TCR hydrolysis in ethyl acetate was lower than that in aqueous buffer at 20 mM TCR was due to the higher Km of TCR in ethyl acetate and not due to a lower catalytic activity. When 50 mM TCR was used, the rates and conversions of TCR hydrolysis in ethyl acetate were similar to those in aqueous buffer.

The test system of data set [6] is α-galactosidase of Aspergillus niger. Kind of data set: TCR hydrolysis by cell debris of α-galactosidase organisms. It is filed as biochemical. Particulars: Aspergillus niger ATCC 36220, for 70% conversion. As to the method: (§1) Organisms reported to have an α-galactosidase activity were obtained from the ATCC. They were grown in 500 ml shake flasks containing 100 ml of a mineral salts medium (Jayasuria, 1955 Journal of General Microbiology 12 419-428) containing 1 g/l yeast extract plus 5 g/l raffinose at 30° C. Cells were collected by centrifugation (5000 rev/min for 10 min) in the late exponential phase of growth, resuspended in 5 times their volume of citrate-phosphate buffer pH 5.0, and maintained at 0° C. in an ice bath and were disrupted by 3×20 second bursts in a MSE sonicator (Dawe Soniprobe Type 1130A) at maximum output. The resulting suspension was centrifuged (17,000 rev/min) for 30 minutes and both debris and supernatant assayed for α-galactosidase activity in units per g. dry weight of cell debris using p-nitrophenyl α-D-galactopyranoside (Sigma). Virtually no enzyme activity was detected in the supernatant. Cultures which were positive were then tested for TCR hydrolysis as in Example 4 and the results given in mg sucralose per g dry weight of cell debris per hour (for 70% conversion).

In data set [7] the test system is α-galactosidase of Saccharomyces uvarum. The data set is described as above. Type of data set: biochemical. The conditions noted are these: Saccharomyces uvarum ATCC 42367, for 70% conversion. As to the method: as §1
For data set [8], the system named is α-galactosidase of Circinella muscae. Described as above. It is filed as biochemical. As to the method:
as §1

Data set [9] has as its system α-galactosidase of Absidia griseola. Described as above. Type of data set: biochemical. The method, then:
as §1

In data set [10] the test system is α-galactosidase of Aspergillus awamori. The data set is described as above. Type of data set: biochemical. Particulars: Aspergillus awamori ATCC 44733, for 70% conversion. As to the method:
as §1

The test system of data set [11] is α-galactosidase of Mortierella vinacea. The data set is described as above. Type of data set: biochemical. The method, then:
as §1

For data set [12], the system named is α-galactosidase of Talaromyces thermophilus. The description is as above. Type of data set: biochemical. The conditions noted are these: Talaromyces thermophilus ATCC 16461, for 70% conversion. As to the method:
as §1

Data set [13] deals with Melibiase in the form of pelletised cells of Mortierella vinacea var raffinoseutilizer (ATCC 20034). Kind of data set: Hydrolysis of TCR to sucralose by melibiase pellets in aqueous buffer. It is filed as biochemical. The conditions noted are these: for TCR hydrolysed: 55° C., pH 5.0, 1% (w/v) TCR. As to the method: The tetrachlorogalactoraffinose of Example 1 (20 mg) was placed in a screw-top bottle together with 0.1M-citrate-phosphate buffer (pH 5.0) (2 ml) to give a 1% (w/v) solution. This level of water was maintained during the following incubation period by addition of more water when required.
Melibiase in the form of pelletised cells of Mortierella vinacea var raffinoseutilizer (ATCC 20034) (supplied by Hokkaido Sugar Co, Japan) was added (10 mg) and the mixture was incubated at 55° C. for up to 100 hours. The degree of hydrolysis was followed periodically by t.l.c. analysis of withdrawn 250 μl aliquots eluted with ethyl acetate:ethanol:water (45:5:1) or by hplc on a Waters Dextropak Cl8 reverse phase column eluted by acetonitrile 20% (v/v) and products measured using a refractive index detector. The result is plotted in FIG. 1. It was found, for example, that about 53% had been hydrolysed after 48 hours and about 70% after 90 hours. The products were separated by chromatography and, in addition to sucralose, the presence of 6-chlorogalactose and TCR was detected. TCR can be used at up to 15% (w/v) in this system.

[14] abbreviates: organic solvent or mixture, ethyl acetate pre-saturated with aqueous buffer, 55° C.
[15] abbreviates: organic solvent or mixture, methyl isobutyl ketone pre-saturated with aqueous buffer, 55° C.
The mark [16] stands for this setting: organic solvent or mixture, n-butanol pre-saturated with aqueous buffer, 55° C.
Where [17] appears, read: organic solvent or mixture, n-octanol pre-saturated with aqueous buffer, 55° C.
The mark [18] stands for this setting: organic solvent or mixture, nitrobenzene pre-saturated with aqueous buffer, 55° C.

In brackets after ≈: the same amount, converted by molar mass.

For orientation: solubility means the dissolved amount per volume that the medium holds. On to `OC[C@H]1O[C@H](O[C@]2(CCl)O[C@H](CCl)[C@@H](O)[C@@H]2O)[C@H](O)[C@@H](O)[C@H]1Cl` [sucralose, 4,1',6'-trichloro-4,1',6'-trideoxygalactosucrose], for which the “Degradation of sucralose produced” value in [1] is given as “not degraded”. In addition, in data set [2], the Degradation in vivo entry is given as “not degraded in vivo”. Besides, the solubility in data set [3] (setting [14]) is 57 mg/mL (≈ 143 mM); in data set [3] (setting [15]), 60 mg/mL (≈ 151 mM); in data set [3] (setting [16]) it was greater than 500 mg/mL; in [3] (setting [17]) it was less than 10 mg/mL; in [3] (setting [18]), less than 10 mg/mL; in [3] (water (aqueous buffer), 55° C.), 300 mg/mL (≈ 754 mM). For the same molecule, in data set [4], the “Sweetness relative to sucrose” value is listed as “about 600 X”.
As usually defined, the Km is the concentration of substrate that gives half-maximal velocity. Consider `OC1C(CCl)OC(OCC2OC(OC3(CCl)OC(CCl)C(O)C3O)C(O)C(O)C2Cl)C(O)C1O` (centres unmarked) [TCR, 4,1',6',6"-tetrachloro-4,1',6',6"-tetradeoxygalactoraffinose], for which the “Conversion of TCR into sucralose” value in data set [5] (aqueous buffer) was 70%; in data set [5] (ethyl acetate), “greater than 50%”; in [5] (methyl isobutyl ketone), 70%; in [5] (n-butanol) it was “greater than 50%”. In data set [5] (dioxane, acetone, methanol, THF, even with 30% v/v aqueous buffer), the “TCR hydrolysis in highly water-miscible solvents” value was “unable to support hydrolysis”. For the same molecule, the Kcat stood at 56.3 mg sucralose/g pellets/h in [5] (ethyl acetate) and 52.5 mg per g enzyme per hour in data set [13] (aqueous solution). The Km was found to be 16.4 mM in [5] (ethyl acetate) and 5.8 mM in data set [13] (aqueous solution, read-out: Michaelis constant (Km)). Further, the solubility in data set [3] (aqueous buffer) is 150 mg/mL (≈ 259 mM); in data set [3] (setting [14]), greater than 500 mg/mL; in data set [3] (organic solvent or mixture, hydrophilic water-immiscible solvents (ethyl acetate, n-butanol, methyl isobutyl ketone)) it was greater than 500 mg/mL; in [3] (organic solvent or mixture, hydrophobic water-immiscible solvents (e.g. n-octanol, nitrobenzene, butyronitrile)) it was less than 50 mg/mL; in data set [3] (setting [15]) it was greater than 500 mg/mL; in data set [3] (setting [16]), greater than 500 mg/mL. In addition, the solubility is 50 mg/mL (≈ 86.5 mM) in data set [3] (setting [17]); less than 20 mg/mL in [3] (setting [18]); 150 mg/mL (≈ 259 mM) in data set [3] (water (aqueous buffer), 55° C.). In addition, the “TCR Hydrolysis” value in [6] was 0.49 mg sucralose per g dry weight; in [7], 0 mg sucralose per g dry weight; in data set [8] (Circinella muscae ATCC 16008, for 70% conversion), 1.12 mg sucralose per g dry weight; in data set [8] (Circinella muscae ATCC 20394, for 70% conversion) it was < 0.2 mg sucralose per g dry weight; in data set [8] (Circinella muscae ATCC 22337, for 70% conversion), 0 mg sucralose per g dry weight; in data set [9] (Absidia griseola ATCC 20430, for 70% conversion), 0 mg sucralose per g dry weight. The “TCR Hydrolysis” value in data set [9] (Absidia griseola ATCC 20431, for 70% conversion) is on record as < 0.2 mg sucralose per g dry weight; in data set [9] (Absidia griseola ATCC 22618, for 70% conversion) it was 0 mg sucralose per g dry weight; in data set [10] it was 0 mg sucralose per g dry weight; in data set [11] (Mortierella vinacea ATCC 20034, for 70% conversion) it was 1.09 mg sucralose per g dry weight; in data set [11] (Mortierella vinacea ATCC 34195, for 70% conversion) it was 1.33 mg sucralose per g dry weight; in [11] (Mortierella vinacea ATCC 42425, for 70% conversion), 1.06 mg sucralose per g dry weight. The “TCR Hydrolysis” value is given as 4.3 mg sucralose per g dry weight in data set [11] (Mortierella vinacea Hokkaido (pellets), for 70% conversion) and 0 mg sucralose per g dry weight in data set [12]. Moreover, the “Rate of reaction on TCR relative to raffinose” value in data set [13] (M. vinacea melibiase (Hokkaido Sugar Co.)) is listed as “only a few percent of the rate on raffinose itself”. The figures for the TCR hydrolysed result in data set [13] (after 48 hours) and in data set [13] (after 90 hours) were “about 53%” and “about 70%”, respectively.
